{"source": "ChEMBL document CHEMBL6092216", "about": "“Development of α-Helical Antimicrobial Peptides with Imperfect Amphipathicity for Superior Activity and Selectivity” (J Med Chem, 2024)", "key": {"HEK-293T": {"system": "HEK-293T", "assay": "Cytotoxicity against HEK293T cells assessed as effect on cell viability at 3.13 to 400 ug/ml incubated for 24 hrs by CCK-8 assay", "type": "toxicity, cell-based", "settings": "human, dose 3.13-400 µg/ml"}, "Pseudomonas aeruginosa [1]": {"system": "Pseudomonas aeruginosa", "assay": "Bactericidal activity against Pseudomonas aeruginosa ATCC 27853 assessed as elimination of bacterial cells at 5XMIC measured within 1 hr by killing kinetic assay", "type": "functional"}, "Staphylococcus aureus [2]": {"system": "Staphylococcus aureus", "assay": "Antibacterial activity against Staphylococcus aureus 15772 assessed as inhibition of bacterial growth incubated for 24 hrs by tube microdilution assay", "type": "functional"}, "Staphylococcus aureus [3]": {"system": "Staphylococcus aureus", "assay": "Antibacterial activity against methicillin-resistant Staphylococcus aureus 11 assessed as inhibition of bacterial growth incubated for 24 hrs by tube microdilution assay", "type": "functional"}, "HaCaT": {"system": "HaCaT", "assay": "Cytotoxicity against human HaCaT cells assessed as effect on cell viability at 3.13 to 400 ug/ml incubated for 24 hrs by CCK-8 assay", "type": "toxicity, cell-based", "settings": "dose 3.13-400 µg/ml"}, "Pseudomonas aeruginosa [4]": {"system": "Pseudomonas aeruginosa", "assay": "Antibacterial activity against Pseudomonas aeruginosa 17068 assessed as inhibition of bacterial growth incubated for 24 hrs by tube microdilution assay", "type": "functional"}, "Erythrocyte": {"system": "Erythrocyte", "assay": "Induction of hemolysis in mouse red blood cells at 1.56 to 100 ug/ml incubated for 1 hr", "type": "toxicity, cell-based", "settings": "dose 1.56-100 µg/ml"}, "Staphylococcus aureus [5]": {"system": "Staphylococcus aureus", "assay": "Bactericidal activity against Staphylococcus aureus ATCC 6538 assessed as bacterial cell killing measured after 35 passages", "type": "functional, organism-based"}, "Pseudomonas aeruginosa [6]": {"system": "Pseudomonas aeruginosa", "assay": "Antibacterial activity against Pseudomonas aeruginosa 60357 assessed as inhibition of bacterial growth incubated for 24 hrs by tube microdilution assay", "type": "functional"}, "Staphylococcus aureus [7]": {"system": "Staphylococcus aureus", "assay": "Induction of bacterial cell rupture in Staphylococcus aureus ATCC 6538 assessed as membrane rupture, roughening and blebbing of membrane at 5XMIC measured after 30 mins by transmission electron microscopy", "type": "functional, organism-based"}, "Acinetobacter baumannii [8]": {"system": "Acinetobacter baumannii", "assay": "Antibacterial activity against Acinetobacter baumannii 10769 assessed as inhibition of bacterial growth incubated for 24 hrs by tube microdilution assay", "type": "functional"}, "Pseudomonas aeruginosa [9]": {"system": "Pseudomonas aeruginosa", "assay": "Antibiofilm activity against preformed Pseudomonas aeruginosa ATCC 27853 biofilms assessed as biofilm eradication at 1X to 10XMIC incubated for 24 hrs by crystal violet staining based analysis", "type": "functional, organism-based"}, "Cell membrane [10]": {"system": "Cell membrane", "assay": "Induction of membrane permeabilization in Acinetobacter baumannii 0357 assessed as increase in fluorescence intensity at 1X to 10XMIC measured for 90 mins by propidium iodide staining based fluorescence analysis", "type": "subcellular"}, "Cell membrane [11]": {"system": "Cell membrane", "assay": "Induction of membrane permeabilization in Escherichia coli 0894 assessed as increase in fluorescence intensity at 1X to 10XMIC measured for 90 mins by propidium iodide staining based fluorescence analysis", "type": "subcellular"}, "Staphylococcus aureus [12]": {"system": "Staphylococcus aureus", "assay": "Antipersister-activity against Staphylococcus aureus ATCC 6538 assessed as elimination of persister cells preincubated adherent persistent cells with vancomycin for 24 hrs followed by incubation with drug for 12 hrs", "type": "functional, organism-based"}, "Staphylococcus aureus [13]": {"system": "Staphylococcus aureus", "assay": "Antibacterial activity against Staphylococcus aureus 15775 assessed as inhibition of bacterial growth incubated for 24 hrs by tube microdilution assay", "type": "functional"}, "Acinetobacter baumannii [14]": {"system": "Acinetobacter baumannii", "assay": "Antibacterial activity against Acinetobacter baumannii 0357 assessed as inhibition of bacterial growth incubated for 24 hrs by tube microdilution assay", "type": "functional"}, "Pseudomonas aeruginosa [15]": {"system": "Pseudomonas aeruginosa", "assay": "Bactericidal activity against Pseudomonas aeruginosa ATCC 27853 assessed as bacterial cell killing measured after 60 passages", "type": "functional, organism-based"}, "Staphylococcus aureus [16]": {"system": "Staphylococcus aureus", "assay": "Induction of bacterial cell rupture in Staphylococcus aureus ATCC 6538 assessed as membrane rupture, roughening and blebbing of membrane at 5XMIC measured after 30 mins by scanning electron microscopy", "type": "functional, organism-based"}, "Acinetobacter baumannii [17]": {"system": "Acinetobacter baumannii", "assay": "Antibacterial activity against Acinetobacter baumannii ATCC 19606 assessed as inhibition of bacterial growth by tube microdilution assay", "type": "functional"}, "Staphylococcus aureus [18]": {"system": "Staphylococcus aureus", "assay": "Antibacterial activity against Staphylococcus aureus 15192 assessed as inhibition of bacterial growth incubated for 24 hrs by tube microdilution assay", "type": "functional"}, "Staphylococcus aureus [19]": {"system": "Staphylococcus aureus", "assay": "Antibacterial activity against Staphylococcus aureus 11842 assessed as inhibition of bacterial growth incubated for 24 hrs by tube microdilution assay", "type": "functional"}, "Escherichia coli [20]": {"system": "Escherichia coli", "assay": "Antibacterial activity against Escherichia coli 1007 assessed as inhibition of bacterial growth incubated for 24 hrs by tube microdilution assay", "type": "functional"}, "Staphylococcus aureus [21]": {"system": "Staphylococcus aureus", "assay": "Antibacterial activity against methicillin-resistant Staphylococcus aureus 51 assessed as inhibition of bacterial growth incubated for 24 hrs by tube microdilution assay", "type": "functional"}, "Acinetobacter baumannii [22]": {"system": "Acinetobacter baumannii", "assay": "Antibacterial activity against Acinetobacter baumannii ATCC 19606 infected in BALB/c mouse assessed as inhibition of bacterial colonization on wounded skin at 0.1 to 2 mg/ml applied on skin and measured after 2 hrs", "type": "functional, organism-based", "settings": "dose 0.1-2 mg/ml"}, "Pseudomonas aeruginosa [23]": {"system": "Pseudomonas aeruginosa", "assay": "Induction of bacterial cell rupture in Pseudomonas aeruginosa ATCC 27853 assessed as induction of internal perturbations and breaks along the membrane at 5XMIC measured after 30 mins transmission electron microscopy", "type": "functional, organism-based"}, "Staphylococcus aureus [24]": {"system": "Staphylococcus aureus", "assay": "Antibacterial activity against methicillin-resistant Staphylococcus aureus 21 assessed as inhibition of bacterial growth incubated for 24 hrs by tube microdilution assay", "type": "functional"}, "Escherichia coli [25]": {"system": "Escherichia coli", "assay": "Antibacterial activity against Escherichia coli 0894 assessed as inhibition of bacterial growth incubated for 24 hrs by tube microdilution assay", "type": "functional"}, "Pseudomonas aeruginosa [26]": {"system": "Pseudomonas aeruginosa", "assay": "Bactericidal activity against Pseudomonas aeruginosa ATCC 27853 assessed as elimination of bacterial cells at 5X to 10XMIC measured within 3 hrs by killing kinetic assay", "type": "functional"}, "Pseudomonas aeruginosa [27]": {"system": "Pseudomonas aeruginosa", "assay": "Antibacterial activity against Pseudomonas aeruginosa 52097 assessed as inhibition of bacterial growth incubated for 24 hrs by tube microdilution assay", "type": "functional"}, "Staphylococcus aureus [28]": {"system": "Staphylococcus aureus", "assay": "Antibacterial activity against Staphylococcus aureus ATCC 6538 infected in BALB/c mouse assessed as inhibition of bacterial colonization on wounded skin at 2 mg/ml applied on skin and measured after 2 hrs relative to control", "type": "functional"}, "Staphylococcus aureus [29]": {"system": "Staphylococcus aureus", "assay": "Antibacterial activity against methicillin-resistant Staphylococcus aureus 22 assessed as inhibition of bacterial growth incubated for 24 hrs by tube microdilution assay", "type": "functional"}, "Pseudomonas aeruginosa [30]": {"system": "Pseudomonas aeruginosa", "assay": "Antipersister-activity against Pseudomonas aeruginosa ATCC 27853 assessed as elimination of persister cells preincubated adherent persistent cells with colistin for 24 hrs followed by incubation with drug for 12 hrs", "type": "functional, organism-based"}, "Pseudomonas aeruginosa [31]": {"system": "Pseudomonas aeruginosa", "assay": "Ratio of MIC for antibacterial activity against Pseudomonas aeruginosa ATCC 27853 measured following incubation of drug with mouse plasma for 8 hrs to MIC for antibacterial activity against Pseudomonas aeruginosa ATCC 27853", "type": "functional"}, "Staphylococcus aureus [32]": {"system": "Staphylococcus aureus", "assay": "Antibacterial activity against methicillin-resistant Staphylococcus aureus 41 assessed as inhibition of bacterial growth incubated for 24 hrs by tube microdilution assay", "type": "functional"}, "Cell membrane [33]": {"system": "Cell membrane", "assay": "Induction of membrane permeabilization in Staphylococcus aureus ATCC 6538 assessed as increase in fluorescence intensity at 1X to 10XMIC measured for 90 mins by propidium iodide staining based fluorescence analysis", "type": "subcellular"}, "Staphylococcus aureus [34]": {"system": "Staphylococcus aureus", "assay": "Antibacterial activity against Staphylococcus aureus 220823 assessed as inhibition of bacterial growth incubated for 24 hrs by tube microdilution assay", "type": "functional"}, "Pseudomonas aeruginosa [35]": {"system": "Pseudomonas aeruginosa", "assay": "Antibiofilm activity against Pseudomonas aeruginosa ATCC 27853 assessed as inhibition of biofilm formation at 1X to 10XMIC incubated for 24 hrs by crystal violet staining based analysis", "type": "functional, organism-based"}, "Pseudomonas aeruginosa [36]": {"system": "Pseudomonas aeruginosa", "assay": "Antibacterial activity against Pseudomonas aeruginosa 90068 assessed as inhibition of bacterial growth incubated for 24 hrs by tube microdilution assay", "type": "functional"}, "Staphylococcus aureus [37]": {"system": "Staphylococcus aureus", "assay": "Bactericidal activity against Staphylococcus aureus ATCC 6538 assessed as elimination of bacterial cells at 5XMIC measured within 1 hr by killing kinetic assay", "type": "functional"}}, "note": "Calls of active or inactive are those of the source. The calls are words filed in the database; no cut-off is given here."}
{"substance": "H-RRGIKKFIKKVKKVKKAI-OH", "values": [{"measurement": "Activity", "setting": "HEK-293T", "value": "Non-toxic"}, {"measurement": "Activity", "setting": "Pseudomonas aeruginosa [1]", "value": 96.6, "unit": "%"}, {"measurement": "MIC", "setting": "Staphylococcus aureus [2]", "value": 2.34, "unit": "µg/mL"}, {"measurement": "MIC", "setting": "Staphylococcus aureus [3]", "value": 2.34, "unit": "µg/mL"}, {"measurement": "Activity", "setting": "HaCaT", "value": "Non-toxic"}, {"measurement": "MIC", "setting": "Pseudomonas aeruginosa [4]", "value": 1.17, "unit": "µg/mL"}, {"measurement": "Activity", "setting": "Erythrocyte", "value": "Non-toxic"}, {"measurement": "Activity", "setting": "Staphylococcus aureus [5]", "value": "Active"}, {"measurement": "MIC", "setting": "Pseudomonas aeruginosa [6]", "value": 1.17, "unit": "µg/mL"}, {"measurement": "Activity", "setting": "Staphylococcus aureus [7]", "value": "Active; Roughening And Blebbing Of Membrane Is Less Pronounced Than In Pseudomonas Aeruginosa"}, {"measurement": "MIC", "setting": "Acinetobacter baumannii [8]", "value": 2.34, "unit": "µg/mL"}, {"measurement": "Activity", "setting": "Pseudomonas aeruginosa [9]", "value": "Active"}, {"measurement": "Activity", "setting": "Cell membrane [10]", "value": "Dose-dependent-effect"}, {"measurement": "Activity", "setting": "Cell membrane [11]", "value": "Dose-dependent-effect"}, {"measurement": "Activity", "setting": "Staphylococcus aureus [12]", "value": "Dose-dependent-effect"}, {"measurement": "MIC", "setting": "Staphylococcus aureus [13]", "value": 2.34, "unit": "µg/mL"}, {"measurement": "MIC", "setting": "Acinetobacter baumannii [14]", "value": 2.34, "unit": "µg/mL"}, {"measurement": "Activity", "setting": "Pseudomonas aeruginosa [15]", "value": "Active"}, {"measurement": "Activity", "setting": "Staphylococcus aureus [16]", "value": "Active; Roughening And Blebbing Of Membrane Is Less Pronounced Than In Pseudomonas Aeruginosa"}, {"measurement": "MIC", "setting": "Acinetobacter baumannii [17]", "value": 2.34, "unit": "µg/mL"}, {"measurement": "MIC", "setting": "Staphylococcus aureus [18]", "value": 2.34, "unit": "µg/mL"}, {"measurement": "MIC", "setting": "Staphylococcus aureus [19]", "value": 2.34, "unit": "µg/mL"}, {"measurement": "MIC", "setting": "Escherichia coli [20]", "value": 9.37, "unit": "µg/mL"}, {"measurement": "MIC", "setting": "Staphylococcus aureus [21]", "value": 2.34, "unit": "µg/mL"}, {"measurement": "Activity", "setting": "Acinetobacter baumannii [22]", "value": "Dose-dependent-effect; Less Efficacy Compared To Colistin, Reflected By Reduced Efficacy After Plasma Treatment"}, {"measurement": "Activity", "setting": "Pseudomonas aeruginosa [23]", "value": "Active"}, {"measurement": "MIC", "setting": "Staphylococcus aureus [24]", "value": 2.34, "unit": "µg/mL"}, {"measurement": "MIC", "setting": "Escherichia coli [25]", "value": 9.37, "unit": "µg/mL"}, {"measurement": "Activity", "setting": "Pseudomonas aeruginosa [26]", "value": 100, "unit": "%"}, {"measurement": "MIC", "setting": "Pseudomonas aeruginosa [27]", "value": 1.17, "unit": "µg/mL"}, {"measurement": "inhibition in vivo at 2000 µg/mL", "setting": "Staphylococcus aureus [28]", "value": 82.4, "unit": "%"}, {"measurement": "MIC", "setting": "Staphylococcus aureus [29]", "value": 2.34, "unit": "µg/mL"}, {"measurement": "Activity", "setting": "Pseudomonas aeruginosa [30]", "value": "Dose-dependent-effect"}, {"measurement": "Ratio", "setting": "Pseudomonas aeruginosa [31]", "value": 4}, {"measurement": "MIC", "setting": "Staphylococcus aureus [32]", "value": 2.34, "unit": "µg/mL"}, {"measurement": "Activity", "setting": "Cell membrane [33]", "value": "Dose-dependent-effect"}, {"measurement": "MIC", "setting": "Staphylococcus aureus [34]", "value": 2.34, "unit": "µg/mL"}, {"measurement": "Activity", "setting": "Pseudomonas aeruginosa [35]", "value": "Dose-dependent-effect"}, {"measurement": "MIC", "setting": "Pseudomonas aeruginosa [36]", "value": 1.17, "unit": "µg/mL"}, {"measurement": "Activity", "setting": "Staphylococcus aureus [37]", "value": 99.7, "unit": "%"}]}
